Legend:
[1] = tested on: Haemonchus contortus L3; assay: microbe, parasite or virus in culture; type: cell-based; conditions: Haemonchus contortus, 96 h, read-out: HcL3 Minimal Effective Concentration (MEC)
[2] = tested on: D. immitis microfilariae; assay: Dirofilaria immitis, microfilariae (DiMF) in vitro motility assay; type: cell-based; conditions: Dirofilaria immitis, 72 h, read-out: DiMF minimally effective dose (MEC)

Row | SMILES | minimal effective concentration [1] | minimal effective concentration [2]
1 | O=C(NCc1ccnc(Cl)c1)n1c2c(c3ccc(OC(F)(F)F)cc31)CN(Cc1ccc3cc(Cl)ccc3c1)CC2 [Example 368, 2-((6-chloronaphthalen-2-yl)methyl)-N-((2-chloropyridin-4-yl)methyl)-7-(trifluoromethoxy)-1,2,3,4-tetrahydro-5H-pyrido[4,3-b]indole-5-carboxamide] | > 100 µM | 43.5 µM
2 | O=C(NCc1ccnc(F)c1)n1c2c(c3ccc(OC(F)(F)F)cc31)CN(C/C=C/c1ccc(Cl)c(F)c1)CC2 [Example 369, (E)-2-(3-(4-chloro-3-fluorophenyl)allyl)-N-((2-fluoropyridin-4-yl)methyl)-7-(trifluoromethoxy)-1,2,3,4-tetrahydro-5H-pyrido[4,3-b]indole-5-carboxamide] | 1 µM | 10 µM
3 | O=C(NCc1ccnc(F)c1)n1c2c(c3ccc(OC(F)(F)F)cc31)CN(C/C=C/c1ccc(Cl)cc1Cl)CC2 [Example 370, (E)-2-(3-(2,4-dichlorophenyl)allyl)-N-((2-fluoropyridin-4-yl)methyl)-7-(trifluoromethoxy)-1,2,3,4-tetrahydro-5H-pyrido[4,3-b]indole-5-carboxamide] | 3.3 µM | 33 µM
4 | O=C(NCc1ccnc(F)c1)n1c2c(c3ccc(OC(F)(F)F)cc31)CN(C/C=C/c1ccc(Cl)cc1F)CC2 [Example 371, (E)-2-(3-(4-chloro-2-fluorophenyl)allyl)-N-((2-fluoropyridin-4-yl)methyl)-7-(trifluoromethoxy)-1,2,3,4-tetrahydro-5H-pyrido[4,3-b]indole-5-carboxamide] | 1.3 µM | 24.5 µM
5 | N#Cc1ccc(/C=C/CN2CCc3c(c4ccc(OC(F)(F)F)cc4n3C(=O)NCc3ccnc(F)c3)C2)cc1F [Example 372, (E)-2-(3-(4-cyano-3-fluorophenyl)allyl)-N-((2-fluoropyridin-4-yl)methyl)-7-(trifluoromethoxy)-1,2,3,4-tetrahydro-5H-pyrido[4,3-b]indole-5-carboxamide] | 0.5 µM | 5.7 µM
6 | O=C(NCc1ccnc(F)c1)n1c2c(c3ccc(OC(F)(F)F)cc31)CN(C/C=C/c1ccc(F)cc1Cl)CC2 [Example 373, (E)-2-(3-(2-chloro-4-fluorophenyl)allyl)-N-((2-fluoropyridin-4-yl)methyl)-7-(trifluoromethoxy)-1,2,3,4-tetrahydro-5H-pyrido[4,3-b]indole-5-carboxamide] | 1.8 µM | 10 µM
7 | O=C(NCc1ccnc(F)c1)n1c2c(c3ccc(OC(F)(F)F)cc31)CN(C/C=C/c1ccc(F)c(Cl)c1)CC2 [Example 375, (E)-2-(3-(3-chloro-4-fluorophenyl)allyl)-N-((2-fluoropyridin-4-yl)methyl)-7-(trifluoromethoxy)-1,2,3,4-tetrahydro-5H-pyrido[4,3-b]indole-5-carboxamide] | 1.8 µM | 18.2 µM
8 | O=C(NCc1ccnc(F)c1)n1c2c(c3ccc(OC(F)(F)F)cc31)CN(C/C=C/c1ccc(F)c(F)c1)CC2 [Example 376, (E)-2-(3-(3,4-difluorophenyl)allyl)-N-((2-fluoropyridin-4-yl)methyl)-7-(trifluoromethoxy)-1,2,3,4-tetrahydro-5H-pyrido[4,3-b]indole-5-carboxamide] | 0.5 µM | 10 µM
9 | O=C(NCc1ccnc(F)c1)n1c2c(c3ccc(OC(F)(F)F)cc31)CN(C/C=C/c1cc(F)cc(F)c1)CC2 [Example 378, (E)-2-(3-(3,5-difluorophenyl)allyl)-N-((2-fluoropyridin-4-yl)methyl)-7-(trifluoromethoxy)-1,2,3,4-tetrahydro-5H-pyrido[4,3-b]indole-5-carboxamide] | 1.8 µM | 10 µM
10 | O=C(NCc1ccnc(F)c1)n1c2c(c3c(OC(F)(F)F)cccc31)CN(C/C=C/c1ccc(Cl)cc1)CC2 [Example 379a, (E)-2-(3-(4-chlorophenyl)allyl)-N-((2-fluoropyridin-4-yl)methyl)-9-(trifluoromethoxy)-1,2,3,4-tetrahydro-5H-pyrido[4,3-b]indole-5-carboxamide] | > 100 µM | 3.3 µM
11 | O=C(NCc1ccnc(F)c1)n1c2c(c3ccc(OC(F)(F)F)cc31)CN(C/C=C/c1cc(F)cc(Cl)c1)CC2 [Example 380, (E)-2-(3-(3-chloro-5-fluorophenyl)allyl)-N-((2-fluoropyridin-4-yl)methyl)-7-(trifluoromethoxy)-1,2,3,4-tetrahydro-5H-pyrido[4,3-b]indole-5-carboxamide] | > 100 µM | 33 µM
12 | O=C(NCc1cnc(Cl)s1)n1c2c(c3ccc(OC(F)(F)F)cc31)CN(C/C=C/c1ccc(Cl)cc1)CC2 [Example 382, (E)-2-(3-(4-chlorophenyl)allyl)-N-((2-chlorothiazol-5-yl)methyl)-7-(trifluoromethoxy)-1,2,3,4-tetrahydro-5H-pyrido[4,3-b]indole-5-carboxamide] | 3.3 µM | 10 µM
13 | O=C(NCc1cnc(Cl)s1)n1c2c(c3c(OC(F)(F)F)cccc31)CN(C/C=C/c1ccc(Cl)cc1)CC2 [Example 383, (E)-2-(3-(4-chlorophenyl)allyl)-N-((2-chlorothiazol-5-yl)methyl)-9-(trifluoromethoxy)-1,2,3,4-tetrahydro-5H-pyrido[4,3-b]indole-5-carboxamide] | > 100 µM | 5.7 µM
14 | O=C(NCc1ccnc(Cl)c1)n1c2c(c3cc(OC(F)(F)F)ccc31)CN(C/C=C/c1ccc(Cl)c(F)c1)CC2 [Example 384, (E)-2-(3-(4-chloro-3-fluorophenyl)allyl)-N-((2-chloropyridin-4-yl)methyl)-8-(trifluoromethoxy)-1,2,3,4-tetrahydro-5H-pyrido[4,3-b]indole-5-carboxamide] | 1 µM | 18.2 µM
15 | O=C(NCc1ccnc(Cl)c1)n1c2c(c3cc(OC(F)(F)F)ccc31)CN(C/C=C/c1ccc(C(F)(F)F)cn1)CC2 [Example 385, (E)-N-((2-chloropyridin-4-yl)methyl)-8-(trifluoromethoxy)-2-(3-(5-(trifluoromethyl)pyridin-2-yl)allyl)-1,2,3,4-tetrahydro-5H-pyrido[4,3-b]indole-5-carboxamide] | 0.5 µM | 47.8 µM
16 | N#Cc1ccc(/C=C/CN2CCc3c(c4cc(OC(F)(F)F)ccc4n3C(=O)NCc3ccnc(Cl)c3)C2)cc1F [Example 386, (E)-N-((2-chloropyridin-4-yl)methyl)-2-(3-(4-cyano-3-fluorophenyl)allyl)-8-(trifluoromethoxy)-1,2,3,4-tetrahydro-5H-pyrido[4,3-b]indole-5-carboxamide] | 0.2 µM | 3.3 µM
17 | O=C(NCc1ccnc(Cl)c1)n1c2c(c3cc(OC(F)(F)F)ccc31)CN(C/C=C/c1ccc(F)cc1F)CC2 [Example 387, (E)-N-((2-chloropyridin-4-yl)methyl)-2-(3-(2,4-difluorophenyl)allyl)-8-(trifluoromethoxy)-1,2,3,4-tetrahydro-5H-pyrido[4,3-b]indole-5-carboxamide] | 0.2 µM | 3.3 µM
18 | O=C(NCc1ccnc(Cl)c1)n1c2c(c3cc(OC(F)(F)F)ccc31)CN(C/C=C/c1ccc(F)c(Cl)c1)CC2 [Example 388, (E)-2-(3-(3-chloro-4-fluorophenyl)allyl)-N-((2-chloropyridin-4-yl)methyl)-8-(trifluoromethoxy)-1,2,3,4-tetrahydro-5H-pyrido[4,3-b]indole-5-carboxamide] | 1.8 µM | > 100 µM
19 | O=C(NCc1ccnc(Cl)c1)n1c2c(c3cc(OC(F)(F)F)ccc31)CN(C/C=C/c1ccc(F)c(F)c1)CC2 [Example 389, (E)-N-((2-chloropyridin-4-yl)methyl)-2-(3-(3,4-difluorophenyl)allyl)-8-(trifluoromethoxy)-1,2,3,4-tetrahydro-5H-pyrido[4,3-b]indole-5-carboxamide] | 0.5 µM | 10 µM
20 | O=C(NCc1ccnc(Cl)c1)n1c2c(c3cc(OC(F)(F)F)ccc31)CN(C/C=C/c1ccc(Cl)c(Cl)c1)CC2 [Example 392, (E)-N-((2-chloropyridin-4-yl)methyl)-2-(3-(3,4-dichlorophenyl)allyl)-8-(trifluoromethoxy)-1,2,3,4-tetrahydro-5H-pyrido[4,3-b]indole-5-carboxamide] | 1 µM | 22.2 µM
21 | O=C(NCc1ccnc(Cl)c1)n1c2c(c3cc(OC(F)(F)F)ccc31)CN(C/C=C/c1ccc(F)cc1)CC2 [Example 393, (E)-N-((2-chloropyridin-4-yl)methyl)-2-(3-(4-fluorophenyl)allyl)-8-(trifluoromethoxy)-1,2,3,4-tetrahydro-5H-pyrido[4,3-b]indole-5-carboxamide] | 0.4 µM | 1.5 µM
22 | COc1ccc(/C=C/CN2CCc3c(c4cc(OC(F)(F)F)ccc4n3C(=O)NCc3ccnc(Cl)c3)C2)cc1 [Example 394, (E)-N-((2-chloropyridin-4-yl)methyl)-2-(3-(4-methoxyphenyl)allyl)-8-(trifluoromethoxy)-1,2,3,4-tetrahydro-5H-pyrido[4,3-b]indole-5-carboxamide] | 1 µM | 6.9 µM
23 | O=C(NCc1ccnc(Cl)c1)n1c2c(c3cc(OC(F)(F)F)ccc31)CN(C/C=C/c1ccc(OC(F)(F)F)cc1)CC2 [Example 395, (E)-N-((2-chloropyridin-4-yl)methyl)-8-(trifluoromethoxy)-2-(3-(4-(trifluoro-methoxy)phenyl)allyl)-1,2,3,4-tetrahydro-5H-pyrido[4,3-b]indole-5-carboxamide] | 3.3 µM | 22.2 µM
